Assay results as given in patent US6358885B1, “Substituted phenylheterocyclic herbicides” (Mississippi State University, priority 1992, dated 2002).

Key:
Test in all cases: Test B preemergence/postemergence greenhouse plant response rating 0 to 10
rape = assay type: in vivo, Brassica napus; conditions: 0 to 10 scale
Method in brief: (§1)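 Postemergence treatment of plants two to eighteen cm tall ran alongside preemergence treatment of planted seed, each using compound in a non-phytotoxic solvent.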

bedstraw = assay type: in vivo, Galium aparine; conditions: 0 to 10 scale
Method in brief: as §1

lambsquarters = assay type: in vivo, Chenopodium album; conditions: 0 to 10 scale
Method in brief: as §1

morningglory = assay type: in vivo, Ipomoea hederacea; conditions: 0 to 10 scale
Method in brief: as §1

sorghum = assay type: in vivo, Sorghum bicolor; conditions: 0 to 10 scale
Method in brief: as §1

barnyardgrass = assay type: in vivo, Echinochloa crus-galli; conditions: 0 to 10 scale
Method in brief: as §1

chickweed = assay type: in vivo, Stellaria media; conditions: 0 to 10 scale
Method in brief: as §1

crabgrass = assay type: in vivo, Digitaria spp.; conditions: 0 to 10 scale
Method in brief: as §1

cotton = assay type: in vivo, Gossypium hirsutum; conditions: 0 to 10 scale
Method in brief: as §1

giant foxtail = assay type: in vivo, Setaria faberii; conditions: 0 to 10 scale
Method in brief: as §1

soybean = assay type: in vivo, Glycine max; conditions: 0 to 10 scale
Method in brief: as §1

wild buckwheat = assay type: in vivo, Polygonum convolvulus; conditions: POSTEMERGENCE, 0 to 10 scale
Method in brief: as §1

sugar beet = assay type: in vivo, Beta vulgaris; conditions: 0 to 10 scale
Method in brief: as §1

purple nutsedge = assay type: in vivo, Cyperus rotundus; conditions: 0 to 10 scale
Method in brief: as §1

barley = assay type: in vivo, Hordeum vulgare; conditions: 0 to 10 scale
Method in brief: as §1

wild oat = assay type: in vivo, Avena fatua; conditions: 0 to 10 scale
Method in brief: as §1

rice = assay type: in vivo, Oryza sativa; conditions: 0 to 10 scale
Method in brief: as §1

cocklebur = assay type: in vivo, Xanthium pensylvanicum; conditions: 0 to 10 scale
Method in brief: as §1

wheat = assay type: in vivo, Triticum aestivum; conditions: 0 to 10 scale
Method in brief: as §1

cheatgrass = assay type: in vivo, Bromus secalinus; conditions: 0 to 10 scale
Method in brief: as §1

blackgrass = assay type: in vivo, Alopecurus myosuroides; conditions: 0 to 10 scale
Method in brief: as §1

corn = assay type: in vivo, Zea mays; conditions: 0 to 10 scale
Method in brief: as §1

velvetleaf = assay type: in vivo, Abutilon theophrasti; conditions: 0 to 10 scale
Method in brief: as §1

## CCCCN1C(=O)COc2cc(F)c(-c3nn4c(c3Cl)CCCC4)cc21 [Compound 57]
rape; POSTEMERGENCE, Rate 10 g/ha
  Plant response rating, Rape: 10
rape; POSTEMERGENCE, Rate 50 g/ha
  Plant response rating, Rape: 10
rape; PREEMERGENCE, Rate 50 g/ha
  Plant response rating, Rape: 0
bedstraw; POSTEMERGENCE, Rate 10 g/ha
  Plant response rating, Bedstraw: 9
bedstraw; POSTEMERGENCE, Rate 50 g/ha
  Plant response rating, Bedstraw: 9
bedstraw; PREEMERGENCE, Rate 10 g/ha
  Plant response rating, Bedstraw: 6
bedstraw; PREEMERGENCE, Rate 50 g/ha
  Plant response rating, Bedstraw: 8
lambsquarters; POSTEMERGENCE, Rate 10 g/ha
  Plant response rating, Lambsquarter: 9
lambsquarters; POSTEMERGENCE, Rate 50 g/ha
  Plant response rating, Lambsquarter: 10
lambsquarters; PREEMERGENCE, Rate 50 g/ha
  Plant response rating, Lambsquarter: 10
morningglory; POSTEMERGENCE, Rate 10 g/ha
  Plant response rating, Morningglory: 10
morningglory; POSTEMERGENCE, Rate 50 g/ha
  Plant response rating, Morningglory: 10
morningglory; PREEMERGENCE, Rate 50 g/ha
  Plant response rating, Morningglory: 10
sorghum; POSTEMERGENCE, Rate 10 g/ha
  Plant response rating, Sorghum: 2
sorghum; POSTEMERGENCE, Rate 50 g/ha
  Plant response rating, Sorghum: 4
sorghum; PREEMERGENCE, Rate 50 g/ha
  Plant response rating, Sorghum: 0
barnyardgrass; POSTEMERGENCE, Rate 10 g/ha
  Plant response rating, Barnyardgrass: 3
barnyardgrass; POSTEMERGENCE, Rate 50 g/ha
  Plant response rating, Barnyardgrass: 3
barnyardgrass; PREEMERGENCE, Rate 10 g/ha
  Plant response rating, Barnyardgrass: 0
barnyardgrass; PREEMERGENCE, Rate 50 g/ha
  Plant response rating, Barnyardgrass: 3
chickweed; POSTEMERGENCE, Rate 10 g/ha
  Plant response rating, Chickweed: 8
chickweed; POSTEMERGENCE, Rate 50 g/ha
  Plant response rating, Chickweed: 10
chickweed; PREEMERGENCE, Rate 10 g/ha
  Plant response rating, Chickweed: 6
chickweed; PREEMERGENCE, Rate 50 g/ha
  Plant response rating, Chickweed: 9
crabgrass; POSTEMERGENCE, Rate 10 g/ha
  Plant response rating, Crabgrass: 2
crabgrass; POSTEMERGENCE, Rate 50 g/ha
  Plant response rating, Crabgrass: 3
crabgrass; PREEMERGENCE, Rate 10 g/ha
  Plant response rating, Crabgrass: 0
crabgrass; PREEMERGENCE, Rate 50 g/ha
  Plant response rating, Crabgrass: 0
cotton; POSTEMERGENCE, Rate 10 g/ha
  Plant response rating, Cotton: 10
cotton; POSTEMERGENCE, Rate 50 g/ha
  Plant response rating, Cotton: 10
cotton; PREEMERGENCE, Rate 10 g/ha
  Plant response rating, Cotton: 0
cotton; PREEMERGENCE, Rate 50 g/ha
  Plant response rating, Cotton: 2
Giant foxtail; POSTEMERGENCE, Rate 10 g/ha
  Plant response rating, Giant foxtail: 5
Giant foxtail; POSTEMERGENCE, Rate 50 g/ha
  Plant response rating, Giant foxtail: 6
Giant foxtail; PREEMERGENCE, Rate 10 g/ha
  Plant response rating, Giant foxtail: 0
Giant foxtail; PREEMERGENCE, Rate 50 g/ha
  Plant response rating, Giant foxtail: 2
soybean; POSTEMERGENCE, Rate 10 g/ha
  Plant response rating, Soybean: 6
soybean; POSTEMERGENCE, Rate 50 g/ha
  Plant response rating, Soybean: 8
soybean; PREEMERGENCE, Rate 50 g/ha
  Plant response rating, Soybean: 0
Wild buckwheat; Rate 10 g/ha
  Plant response rating, Wild buckwheat: 10
Wild buckwheat; Rate 50 g/ha
  Plant response rating, Wild buckwheat: 10
Sugar beet; POSTEMERGENCE, Rate 10 g/ha
  Plant response rating, Sugar beet: 10
Sugar beet; POSTEMERGENCE, Rate 50 g/ha
  Plant response rating, Sugar beet: 10
Sugar beet; PREEMERGENCE, Rate 50 g/ha
  Plant response rating, Sugar beet: 9
Purple nutsedge; POSTEMERGENCE, Rate 10 g/ha
  Plant response rating, Nutsedge: 2
Purple nutsedge; POSTEMERGENCE, Rate 50 g/ha
  Plant response rating, Nutsedge: 4
Purple nutsedge; PREEMERGENCE, Rate 50 g/ha
  Plant response rating, Nutsedge: 0
barley; POSTEMERGENCE, Rate 10 g/ha
  Plant response rating, Barley: 4
barley; POSTEMERGENCE, Rate 50 g/ha
  Plant response rating, Barley: 4
barley; PREEMERGENCE, Rate 10 g/ha
  Plant response rating, Barley: 0
barley; PREEMERGENCE, Rate 50 g/ha
  Plant response rating, Barley: 0
Wild oat; POSTEMERGENCE, Rate 10 g/ha
  Plant response rating, Wild oat: 4
Wild oat; POSTEMERGENCE, Rate 50 g/ha
  Plant response rating, Wild oat: 7
Wild oat; PREEMERGENCE, Rate 50 g/ha
  Plant response rating, Wild oat: 5
rice; POSTEMERGENCE, Rate 10 g/ha
  Plant response rating, Rice: 3
rice; POSTEMERGENCE, Rate 50 g/ha
  Plant response rating, Rice: 3
rice; PREEMERGENCE, Rate 50 g/ha
  Plant response rating, Rice: 0
cocklebur; POSTEMERGENCE, Rate 10 g/ha
  Plant response rating, Cocklebur: 9
cocklebur; POSTEMERGENCE, Rate 50 g/ha
  Plant response rating, Cocklebur: 9
cocklebur; PREEMERGENCE, Rate 10 g/ha
  Plant response rating, Cocklebur: 0
cocklebur; PREEMERGENCE, Rate 50 g/ha
  Plant response rating, Cocklebur: 3
wheat; POSTEMERGENCE, Rate 10 g/ha
  Plant response rating, Wheat: 7
wheat; POSTEMERGENCE, Rate 50 g/ha
  Plant response rating, Wheat: 7
wheat; PREEMERGENCE, Rate 50 g/ha
  Plant response rating, Wheat: 2
cheatgrass; POSTEMERGENCE, Rate 10 g/ha
  Plant response rating, Cheatgrass: 4
cheatgrass; POSTEMERGENCE, Rate 50 g/ha
  Plant response rating, Cheatgrass: 6
cheatgrass; PREEMERGENCE, Rate 10 g/ha
  Plant response rating, Cheatgrass: 3
cheatgrass; PREEMERGENCE, Rate 50 g/ha
  Plant response rating, Cheatgrass: 5
blackgrass; POSTEMERGENCE, Rate 10 g/ha
  Plant response rating, Blackgrass: 4
blackgrass; POSTEMERGENCE, Rate 50 g/ha
  Plant response rating, Blackgrass: 7
blackgrass; PREEMERGENCE, Rate 10 g/ha
  Plant response rating, Blackgrass: 3
blackgrass; PREEMERGENCE, Rate 50 g/ha
  Plant response rating, Blackgrass: 6
corn; POSTEMERGENCE, Rate 10 g/ha
  Plant response rating, Corn: 3
corn; POSTEMERGENCE, Rate 50 g/ha
  Plant response rating, Corn: 4
corn; PREEMERGENCE, Rate 50 g/ha
  Plant response rating, Corn: 0
velvetleaf; POSTEMERGENCE, Rate 10 g/ha
  Plant response rating, Velvetleaf: 6
velvetleaf; POSTEMERGENCE, Rate 50 g/ha
  Plant response rating, Velvetleaf: 9
velvetleaf; PREEMERGENCE, Rate 50 g/ha
  Plant response rating, Velvetleaf: 10
